From the NIST ThermoML archive (doi:10.1021/je400250u)

What was measured:
[1] = xn = mol fraction of the nth substance listed; conditions: 100 kPa, Liquid; for viscosity: Capillary tube (Ostwald / Ubbelohde) method; for mass density: Vibrating tube method
[2] = refractive index (Na D-line) (dimensionless); xn = mol fraction of the nth substance listed; conditions: 100 kPa, Liquid, Standard Abbe refractometry

C1CC[C@H]2CCCC[C@@H]2C1 [trans-decahydronaphthalene] + CCCCCCCCCCC
Conditions | mass density, [1] [kg/m3] | refractive index, [2] | viscosity, [1] [mPa·s]
298.15 K, x1 = 0.1041 | – | 1.4188 | –
298.15 K, x1 = 0.2052 | – | 1.423 | –
298.15 K, x1 = 0.3027 | – | 1.4272 | –
298.15 K, x1 = 0.3999 | – | 1.4319 | –
298.15 K, x1 = 0.4997 | – | 1.4367 | –
298.15 K, x1 = 0.5991 | – | 1.4421 | –
298.15 K, x1 = 0.6991 | – | 1.4476 | –
298.15 K, x1 = 0.8019 | – | 1.4535 | –
298.15 K, x1 = 0.8992 | – | 1.4594 | –
298.15 K, x1 = 1 | – | 1.4662 | –
308.15 K, x1 = 0.1041 | – | 1.4143 | –
308.15 K, x1 = 0.2052 | – | 1.419 | –
308.15 K, x1 = 0.3027 | – | 1.4232 | –
308.15 K, x1 = 0.3999 | – | 1.428 | –
308.15 K, x1 = 0.4997 | – | 1.4331 | –
308.15 K, x1 = 0.5991 | – | 1.4378 | –
308.15 K, x1 = 0.6991 | – | 1.4434 | –
308.15 K, x1 = 0.8019 | – | 1.4496 | –
308.15 K, x1 = 0.8992 | – | 1.4559 | –
308.15 K, x1 = 1 | – | 1.4618 | –
313.15 K, x1 = 0.1041 | 736.25 | – | –
313.15 K, x1 = 0.2052 | 747.11 | – | –
313.15 K, x1 = 0.3027 | 758.09 | – | –
313.15 K, x1 = 0.3999 | 769.57 | – | –
313.15 K, x1 = 0.4997 | 781.99 | – | –
313.15 K, x1 = 0.5991 | 794.96 | – | 1.117
313.15 K, x1 = 0.6991 | 808.67 | – | 1.182
313.15 K, x1 = 0.8019 | 823.59 | – | 1.267
313.15 K, x1 = 0.8992 | 838.5 | – | 1.364
313.15 K, x1 = 1 | 854.88 | – | 1.505
318.15 K, x1 = 0.1041 | 732.53 | 1.4099 | 0.842
318.15 K, x1 = 0.2052 | 743.39 | 1.4146 | 0.869
318.15 K, x1 = 0.3027 | 754.37 | 1.4191 | 0.908
318.15 K, x1 = 0.3999 | 765.85 | 1.4236 | 0.94
318.15 K, x1 = 0.4997 | 778.27 | 1.4281 | 0.988
318.15 K, x1 = 0.5991 | 791.24 | 1.4332 | 1.042
318.15 K, x1 = 0.6991 | 804.95 | 1.439 | 1.101
318.15 K, x1 = 0.8019 | 819.87 | 1.4452 | 1.18
318.15 K, x1 = 0.8992 | 834.77 | 1.4515 | 1.267
318.15 K, x1 = 1 | 851.14 | 1.4581 | 1.394
323.15 K, x1 = 0.1041 | 728.79 | – | 0.789
323.15 K, x1 = 0.2052 | 739.66 | – | 0.815
323.15 K, x1 = 0.3027 | 750.64 | – | 0.852
323.15 K, x1 = 0.3999 | 762.12 | – | 0.881
323.15 K, x1 = 0.4997 | 774.54 | – | 0.924
323.15 K, x1 = 0.5991 | 787.51 | – | 0.975
323.15 K, x1 = 0.6991 | 801.22 | – | 1.028
323.15 K, x1 = 0.8019 | 816.14 | – | 1.1
323.15 K, x1 = 0.8992 | 831.03 | – | 1.18
323.15 K, x1 = 1 | 847.4 | – | 1.295
